Assay results from PubChem BioAssay AID330 (DTP/NCI, 2004).
“And” between values parts separate entries of the source, which are not always exact repeats. Identical values can stand only once. Toxic doses and inconclusive results are not listed. Rule for the calls: active = survival T/C of 150% or more; inactive = T/C below 125% in these data.

Test system: P388 leukemia ip, CD2F1 mice, survival T/C
Assay: NCI In Vivo Anticancer Drug Screen. Data for tumor model P388 Leukemia (intraperitoneal) in CD2F1 (CDF1) mice
Conditions: endpoint: median survival time, higher = longer survival
Procedure, shortened: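 Mice carrying the transplanted tumor received test compound or vehicle. Survival was recorded in each group, and the value is the treated-group measurement divided by that of the vehicle-treated control group.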

[1] = dose: 400.0 mg/kg/injection, schedule: Q04DX003 (ip), vehicle: saline with Tween-80
[2] = dose: 25.0 mg/kg/injection, schedule: Q01DX005 (ip), vehicle: Klucel (hydroxypropylcellulose) (HPC)
[3] = dose: 50.0 mg/kg/injection, schedule: Q01DX005 (ip), vehicle: Klucel (hydroxypropylcellulose) (HPC)
[4] = dose: 100.0 mg/kg/injection, schedule: Q01DX005 (ip), vehicle: Klucel (hydroxypropylcellulose) (HPC)
[5] = dose: 200.0 mg/kg/injection, schedule: Q01DX005 (ip), vehicle: Klucel (hydroxypropylcellulose) (HPC)
[6] = dose: 50.0 mg/kg/injection, schedule: Q01DX005 (ip), vehicle: saline with Tween-80
[7] = dose: 100.0 mg/kg/injection, schedule: Q01DX005 (ip), vehicle: saline with Tween-80
[8] = dose: 200.0 mg/kg/injection, schedule: Q01DX005 (ip), vehicle: saline with Tween-80
[9] = dose: 60.0 mg/kg/injection, schedule: Q01DX005 (ip), vehicle: saline with Tween-80
[10] = dose: 120.0 mg/kg/injection, schedule: Q01DX005 (ip), vehicle: saline with Tween-80

Measured: T/C

NCC(=O)Nc1ccc(O)cc1
inactive: dose: 100.0 mg/kg/injection, schedule: Q01DX009 (ip), vehicle: saline sonified 104 % of control | dose: 100.0 mg/kg/injection, schedule: Q04DX003 (ip), vehicle: saline sonified 110 % of control | dose: 200.0 mg/kg/injection, schedule: Q04DX003 (ip), vehicle: saline sonified 110 % of control | dose: 264.0 mg/kg/injection, schedule: Q04DX003 (ip), vehicle: saline with Tween-80 109 % of control | [1] 109 % of control | dose: 600.0 mg/kg/injection, schedule: Q04DX003 (ip), vehicle: saline with Tween-80 109 % of control

CN1CCN(Cc2ccccc2)C(C#N)C1 (configuration not stated)
inactive: dose: 3.13 mg/kg/injection, schedule: Q01DX005 (ip), vehicle: water 100 % of control | dose: 6.25 mg/kg/injection, schedule: Q01DX005 (ip), vehicle: water 95 % of control | dose: 12.5 mg/kg/injection, schedule: Q01DX005 (ip), vehicle: water 93 % of control | dose: 25.0 mg/kg/injection, schedule: Q01DX005 (ip), vehicle: water 100 % of control | dose: 50.0 mg/kg/injection, schedule: Q01DX005 (ip), vehicle: water 105 % of control and 112 % of control | dose: 100.0 mg/kg/injection, schedule: Q01DX005 (ip), vehicle: water 105 % of control

CNc1[nH]c(=O)ncc1N
inactive: [2] 98 % of control | [3] 98 % of control | [4] 98 % of control

COc1cc2c(c(OC)c1OC)-c1ccc(=O)c(OC)cc1C=CC2
inactive: dose: 2.5 mg/kg/injection, schedule: Q01DX009 (ip), vehicle: Klucel (hydroxypropylcellulose) (HPC) 100 % of control | dose: 5.0 mg/kg/injection, schedule: Q01DX009 (ip), vehicle: Klucel (hydroxypropylcellulose) (HPC) 106 % of control | dose: 10.0 mg/kg/injection, schedule: Q01DX009 (ip), vehicle: Klucel (hydroxypropylcellulose) (HPC) 104 % of control and 108 % of control | dose: 20.0 mg/kg/injection, schedule: Q01DX009 (ip), vehicle: Klucel (hydroxypropylcellulose) (HPC) 103 % of control and 109 % of control | dose: 40.0 mg/kg/injection, schedule: Q01DX009 (ip), vehicle: Klucel (hydroxypropylcellulose) (HPC) 106 % of control and 123 % of control | dose: 80.0 mg/kg/injection, schedule: Q01DX009 (ip), vehicle: Klucel (hydroxypropylcellulose) (HPC) 115 % of control

O=[N+]([O-])c1ccc(SCc2ccccc2)c2nonc12
inactive: dose: 12.5 mg/kg/injection, schedule: Q01DX009 (ip), vehicle: suspension in saline 111 % of control | dose: 25.0 mg/kg/injection, schedule: Q01DX009 (ip), vehicle: saline 94 % of control | dose: 25.0 mg/kg/injection, schedule: Q01DX009 (ip), vehicle: suspension in saline 106 % of control | dose: 50.0 mg/kg/injection, schedule: Q01DX009 (ip), vehicle: saline 100 % of control | dose: 50.0 mg/kg/injection, schedule: Q01DX009 (ip), vehicle: suspension in saline 113 % of control | dose: 100.0 mg/kg/injection, schedule: Q01DX009 (ip), vehicle: saline 94 % of control

CCC(c1cccc(O)c1)C(CC)c1cccc(O)c1 (configuration not stated)
inactive: [3] 102 % of control | [4] 102 % of control | [5] 103 % of control

Cc1cc(C)n(-c2ccccc2-[n+]2noc([O-])c2C)n1
inactive: [6] 97 % of control | [7] 95 % of control | [8] 95 % of control

N#CC(OC(=O)c1ccccc1)C(OC(=O)c1ccccc1)C(COC(=O)c1ccccc1)OC(=O)c1ccccc1 (configuration not stated)
inactive: [6] 99 % of control and 92 % of control | [7] 94 % of control | [8] 99 % of control

Cc1ccc(NC(=O)COc2ccc(Cl)cc2Cl)c(C)c1
inactive: dose: 100.0 mg/kg/injection, schedule: Q04DX003 (ip), vehicle: saline with Tween-80 104 % of control | dose: 200.0 mg/kg/injection, schedule: Q04DX003 (ip), vehicle: saline with Tween-80 95 % of control | [1] 90 % of control

NC(=O)Nc1ccc(Cc2ccc(NC(N)=O)cc2)cc1
inactive: dose: 50.0 mg/kg/injection, schedule: Q01DX009 (ip), vehicle: Klucel (hydroxypropylcellulose) (HPC) 94 % of control | dose: 100.0 mg/kg/injection, schedule: Q01DX009 (ip), vehicle: Klucel (hydroxypropylcellulose) (HPC) 94 % of control | dose: 200.0 mg/kg/injection, schedule: Q01DX009 (ip), vehicle: Klucel (hydroxypropylcellulose) (HPC) 91 % of control

Cc1ccc(/C=N/O)cc1
inactive: [2] 97 % of control | [3] 98 % of control | [4] 99 % of control | [5] 98 % of control

COc1cc2c[n+]3c4c(cccc4c2cc1OC)CCC3
inactive: dose: 12.5 mg/kg/injection, schedule: Q01DX009 (ip), vehicle: water 109 % of control | dose: 25.0 mg/kg/injection, schedule: Q01DX009 (ip), vehicle: water 108 % of control | dose: 50.0 mg/kg/injection, schedule: Q01DX009 (ip), vehicle: water 110 % of control

Cc1ccc2c(c1)S(=O)(=O)NC2=O
inactive: [9] 95 % of control | [10] 92 % of control | dose: 240.0 mg/kg/injection, schedule: Q01DX005 (ip), vehicle: saline with Tween-80 95 % of control

CCC(=O)Nc1ccc(N)cc1
inactive: dose: 100.0 mg/kg/injection, schedule: Q04DX003 (ip), vehicle: saline 98 % of control | dose: 200.0 mg/kg/injection, schedule: Q04DX003 (ip), vehicle: saline 97 % of control

O=C(O)COc1ccc(-c2ccc(Br)cc2)cc1
inactive: dose: 12.5 mg/kg/injection, schedule: Q01DX009 (ip), vehicle: saline with Tween-80 91 % of control | dose: 25.0 mg/kg/injection, schedule: Q01DX009 (ip), vehicle: saline with Tween-80 97 % of control | dose: 50.0 mg/kg/injection, schedule: Q01DX009 (ip), vehicle: saline with Tween-80 103 % of control

NSc1ccc([N+](=O)[O-])cc1
inactive: dose: 25.0 mg/kg/injection, schedule: Q01DX001 (ip), vehicle: other 109 % of control | dose: 50.0 mg/kg/injection, schedule: Q01DX001 (ip), vehicle: other 100 % of control

CC1CC2([Si](C)(C)C)C(=O)NC(=O)NC12 (configuration not stated)
inactive: [2] 112 % of control | [3] 103 % of control | [4] 112 % of control | [5] 99 % of control

CCN(CC)c1ccc(C(NCCC(C)C)C(Cl)(Cl)Cl)cc1 (configuration not stated)
inactive: dose: 50.0 mg/kg/injection, schedule: Q01DX005 (ip), vehicle: saline 97 % of control | dose: 100.0 mg/kg/injection, schedule: Q01DX005 (ip), vehicle: saline 101 % of control | dose: 200.0 mg/kg/injection, schedule: Q01DX005 (ip), vehicle: saline 101 % of control

Clc1c2ccccc2nc2ccccc12
inactive: [6] 98 % of control | [7] 91 % of control | [8] 98 % of control

O=P(c1ccccc1)(c1ccccc1)c1ccccc1.O=P(c1ccccc1)(c1ccccc1)c1ccccc1.O=P(c1ccccc1)(c1ccccc1)c1ccccc1.O=P(c1ccccc1)(c1ccccc1)c1ccccc1.[O-][Cl+3]([O-])([O-])O.[Zn+2]
inactive: dose: 50.0 mg/kg/injection, schedule: Q01DX001 (ip), vehicle: saline with Tween-80 104 % of control | dose: 100.0 mg/kg/injection, schedule: Q01DX001 (ip), vehicle: saline with Tween-80 103 % of control and 90 % of control

N#CCc1nc2ccccc2s1
inactive: dose: 30.0 mg/kg/injection, schedule: Q01DX005 (ip), vehicle: saline with Tween-80 102 % of control | [9] 107 % of control | [10] 102 % of control

CCOC(=O)NP1(=O)NCc2ccccc2CN1
inactive: [6] 103 % of control | [7] 99 % of control | [8] 90 % of control
